Columns and labels:
[1] = test system: antibodies in sera from SARS patients (sera 1a, 1b, 2, 6, 37, 62, London, SARS-yellow, SARS-green); type: binding, human; design: Binding of serum 6 to linear peptides of protein X1 of SARS-CoV Urbani / Binding of serum 37 to linear peptides of protein X1 of SARS-CoV Urbani / Binding of serum 6 to looped/cyclic peptide (PEPSCAN-ELISA) / Binding of serum 37 to looped/cyclic peptide (PEPSCAN-ELISA) / Binding of serum 37 to looped/cyclic peptides of protein X1 of SARS-CoV Urbani / Binding of serum 6 to linear peptides of protein X2 / Binding of serum 37 to linear peptides of protein X2 / Binding of serum 37 to looped/cyclic peptides of protein X2 of SARS-CoV Urbani / Binding of serum 6 to linear peptides of protein M of SARS-CoV Urbani / Binding of serum 37 to linear peptides of protein M of SARS-CoV Urbani / Binding of serum 6 to looped/cyclic peptides of protein M of SARS-CoV Urbani / Binding of serum 37 to looped/cyclic peptides of protein M of SARS-CoV Urbani / Binding of serum 6 to linear peptides of protein X3 of SARS-CoV Urbani / Binding of serum 37 to linear peptides of protein X3 of SARS-CoV Urbani / Binding of serum 37 to looped/cyclic peptides of protein X3 of SARS-CoV Urbani / Binding of serum 6 to linear peptides of protein X4 of SARS-CoV Urbani / Binding of serum 37 to linear peptides of protein X4 of SARS-CoV Urbani / Binding of serum 37 to looped/cyclic peptides of protein X4 of SARS-CoV Urbani / Binding of serum 6 to linear peptides of protein X5 of SARS-CoV Urbani / Binding of serum 37 to linear peptides of protein X5 of SARS-CoV Urbani / Binding of serum 37 to looped/cyclic peptides of protein X5 of SARS-CoV Urbani / Binding of serum 6 to linear peptides of protein N of SARS-CoV Urbani / Binding of serum 37 to linear peptides of protein N of SARS-CoV Urbani / Binding of serum 6 to linear peptide (PEPSCAN-ELISA) / Binding of serum 1a to looped/cyclic peptides of protein N of SARS-CoV Urbani / Binding of serum 1b to looped/cyclic peptides of protein N of SARS-CoV Urbani / Binding of serum 2 to looped/cyclic peptides of protein N of SARS-CoV Urbani / Binding of serum 6 to looped/cyclic peptides of protein N of SARS-CoV Urbani / Binding of serum 37 to looped/cyclic peptides of protein N of SARS-CoV Urbani / Binding of serum 62 to looped/cyclic peptides of protein N of SARS-CoV Urbani / Binding of serum London to looped/cyclic peptides of protein N of SARS-CoV Urbani / Binding of serum SARS-green to looped/cyclic peptides of protein N of SARS-CoV Urbani: unit not given here
[2] = test system: control sera (pooled serum of ten healthy LUMC hospital workers; commercial negative donor pooled serum from the Dutch bloodbank); type: binding, human; design: Binding of Control serum LUMC to linear peptides / Binding of Control serum Blood-bank to linear peptides / Binding of Control serum LUMC to looped peptides / Binding of Control Serum Blood-Bank to Looped peptides / Binding of Control serum LUMC to linear peptides of the protein M of SARS-CoV Urbani / Binding of Control serum Blood-bank to linear peptides of the protein M of SARS-CoV Urbani / Binding of Control serum LUMC to looped peptides of the protein M of SARS-CoV Urbani / Binding of Control Serum Blood-Bank to Looped peptides of the protein M of SARS-CoV Urbani: unit not given here
[3] = test system: rabbit serum obtained by immunizing a rabbit with the SARS-CoV strain Frankfurt 1; type: binding; design: Binding of a rabbit serum to linear peptides / Binding of a rabbit serum to looped peptides / Rabbit serum linear peptides / Rabbit serum looped peptides / Binding of a rabbit serum to linear peptides of protein N of SARS-CoV Urbani (Rabbit serum linear peptides) / Binding of a rabbit serum to looped/cyclic peptides of protein N of SARS-CoV Urbani (Rabbit serum looped peptides): unit not given here

NPLLYDANYFVCWHT was tested, and the “Binding of serum 1a to linear peptides of protein X1 of SARS-CoV Urbani” value [1] was 0.9, the “Binding of serum 1a to looped/cyclic peptide (PEPSCAN-ELISA)” value [1] was 0.5 and the “Binding of serum 1b to linear peptides of protein X1 of SARS-CoV Urbani” value [1] was 0.6. For the same sequence, the “Binding of serum 1b to looped/cyclic peptide (PEPSCAN-ELISA)” value [1] was 0.4, the “Binding of serum 2 to linear peptides of protein X1 of SARS-CoV Urbani” value [1] was 0.6 and the “Binding of serum 2 to looped/cyclic peptide (PEPSCAN-ELISA)” value [1] was 0.4. For the same sequence, the “Binding of serum 6 to linear peptides of protein X1 of SARS-CoV Urbani” value [1] was 0.5, the “Binding of serum 6 to looped/cyclic peptide (PEPSCAN-ELISA)” value [1] was 0.3 and the “Binding of serum 37 to linear peptides of protein X1 of SARS-CoV Urbani” value [1] was 0.8. For the same sequence, the “Binding of serum 37 to looped/cyclic peptide (PEPSCAN-ELISA)” value [1] was 0.5, the “Binding of serum 62 to linear peptides of protein X1 of SARS-CoV Urbani” value [1] was 0.7 and the “Binding of serum 62 to looped/cyclic peptide (PEPSCAN-ELISA)” value [1] was 0.6. For the same sequence, the “Binding of serum London to linear peptides of protein X1 of SARS-CoV Urbani” value [1] was 0.3, the “Binding of serum London to looped/cyclic peptide (PEPSCAN-ELISA)” value [1] was 0.2 and the “Binding of serum SARS-green to linear peptides of protein X1 of SARS-CoV Urbani” value [1] was 0.4. The “Binding of serum SARS-green to looped/cyclic peptide (PEPSCAN-ELISA)” value [1] was 0.3, the “Binding of serum SARS-yellow to linear peptides of protein X1 of SARS-CoV Urbani” value [1] was 0.4 and the “Binding of serum SARS-yellow to looped/cyclic peptide (PEPSCAN-ELISA)” value [1] was 0.4. The “Binding of Control Serum Blood-Bank to Looped peptides” value [2] was 0.7, the “Binding of Control serum Blood-bank to linear peptides” value [2] was 0.6 and the “Binding of Control serum LUMC to linear peptides” value [2] was 0.6. For the same sequence, the “Binding of Control serum LUMC to looped peptides” value [2] was 0.6, the “Binding of a rabbit serum to linear peptides” value [3] was 0.2 and the “Binding of a rabbit serum to looped peptides” value [3] was 0.6.

With ELVIGAVIIRGHLRM the “Binding of serum 1a to linear peptides of protein M of SARS-CoV Urbani” value [1] was 0.8, the “Binding of serum 1a to looped/cyclic peptides of protein M of SARS-CoV Urbani” value [1] was 0.8 and the “Binding of serum 1b to linear peptides of protein M of SARS-CoV Urbani” value [1] was 0.6. For the same sequence, the “Binding of serum 1b to looped/cyclic peptides of protein M of SARS-CoV Urbani” value [1] was 0.4, the “Binding of serum 2 to linear peptides of protein M of SARS-CoV Urbani” value [1] was 0.7 and the “Binding of serum 2 to looped/cyclic peptides of protein M of SARS-CoV Urbani” value [1] was 0.7. The “Binding of serum 6 to linear peptides of protein M of SARS-CoV Urbani” value [1] was 0.3, the “Binding of serum 6 to looped/cyclic peptides of protein M of SARS-CoV Urbani” value [1] was 0.7 and the “Binding of serum 37 to linear peptides of protein M of SARS-CoV Urbani” value [1] was 0.8. The “Binding of serum 37 to looped/cyclic peptides of protein M of SARS-CoV Urbani” value [1] was 0.7, the “Binding of serum 62 to linear peptides of protein M of SARS-CoV Urbani” value [1] was 0.8 and the “Binding of serum 62 to looped/cyclic peptides of protein M of SARS-CoV Urbani” value [1] was 0.6. For the same sequence, the “Binding of serum London to linear peptides of protein M of SARS-CoV Urbani” value [1] was 0.3, the “Binding of serum London to looped/cyclic peptides of protein M of SARS-CoV Urbani” value [1] was 0.2 and the “Binding of serum SARS-green to linear peptides of protein M of SARS-CoV Urbani” value [1] was 0.3. The “Binding of serum SARS-green to looped/cyclic peptides of protein M of SARS-CoV Urbani” value [1] was 0.3, the “Binding of serum SARS-yellow to linear peptides of protein M of SARS-CoV Urbani” value [1] was 0.1 and the “Binding of serum SARS-yellow to looped/cyclic peptides of protein M of SARS-CoV Urbani” value [1] was 0.6. The “Binding of Control Serum Blood-Bank to Looped peptides of the protein M of SARS-CoV Urbani” value [2] was 0.7, the “Binding of Control serum Blood-bank to linear peptides of the protein M of SARS-CoV Urbani” value [2] was 0.7 and the “Binding of Control serum LUMC to linear peptides of the protein M of SARS-CoV Urbani” value [2] was 0.5. The “Binding of Control serum LUMC to looped peptides of the protein M of SARS-CoV Urbani” value [2] was 0.6, the “Rabbit serum linear peptides” value [3] was 0.8 and the “Rabbit serum looped peptides” value [3] was 0.1.
